One series concerns HL-60 Bcl-2 cells. Kind of series: DNA fragmentation (release of 3H-labeled DNA fragments) in Bcl-2-transfected HL-60 cells. It counts as cell-based, human.
In another series the test system is mice. Kind of series: Multiple dose toxicity with histopathological analysis. The following applies: doxorubicin 5 mg/kg alone. It counts as in vivo. On the procedure:
In the present study, more extensive toxicity studies with histopathological analysis of seven different tissues was performed on W-143 at a commercial lab.
Groups of six mice (3 male and 3 females) each were given three i.p. injections at two day intervals of vehicle, doxorubicin 5 mg/kg alone, W-143 200 mg/kg alone or both together. On day 5 and day 15 after the last injection, mice were sacrificed, necropsied, and tissue samples processed. Tissues examined include bone marrow, liver, heart, small and large intestine, 1 sex organ, and kidney.

The next series deals with RIF-1 fibrosarcoma. Kind of series: RIF-1 fibrosarcoma tumor growth in vivo. On the set-up: species or system mice. The text has this:
The present study tested in the ability of W-188 to synergize with Dox and inhibit tumor growth in vivo. The RIF-1 fibrosarcoma model was used because this model has been well-characterized, and naturally expresses high Bcl-2 levels and has a consistent growth pattern (Nahabedian, M. Y., et al., J. Natl. Can. Inst., 1988, 80:739; Chang, M-J., et al., Cancer Res., 1994, 54:5380; Srivastana, M., et al., J. Biol. Chem., 2001, 276:15481).
Groups of five mice each were inoculated s.c. with RIF-1 cells. The tumors were allowed to grow for 12 days to a size of 0.5 cm diameter, which was designated day 0. The mice were then given five i.p. injections every other day with vehicle, Dox 2.5 mg/kg, Dox 5.0 mg/kg, W-188 100 mg/kg, and Dox 5.0 mg/kg+W-188 100 mg/kg. The mice were weighed and the tumor size measured every day.
The protocol was similar to that described for the W-188 experiment in Example 8, except that in this study, mice with established tumors received only three injections of W-143 or Dox every other day starting on day 0.

The test system of the next series is Bcl-2. Description: Western blot for expression of Bcl-2 in RIF-1 tumors in vivo. On the set-up: species or system mice. The following applies: Dox alone; day 15; FIG. 16. The text has this:
Cells were dissociated, lysed, and the nuclei and mitochondria separated by differential centrifugation. RIF-1 cells cultured in vitro were processed in a similar manner as a positive control. Equal amounts of protein extracts were separated by electrophoresis and analyzed by Western blot for expression of Bcl-2. […] The pattern of Bcl-2 expression was similar in the nuclei, although the overall levels were lower than in the mitochondria. […] Most likely, this discrepancy can be explained by the fact that this line is transfected with exogenous Bcl-2, whereas the RIF-1 line expresses endogenous Bcl-2 under control of its natural promoter. […] Alternatively, W-188 and W-143 may differ in their mechanisms of action, although this conclusion seems less likely in view of the structural similarity of these two compounds.

Series [1] is described as follows: Body weight of RIF-1 tumor bearing mice. The following applies: Dox 5 mg/kg alone; FIG. 15.
Text: Groups of five mice each were inoculated s.c. with RIF-1 cells. The tumors were allowed to grow for 12 days to a size of 0.5 cm diameter, which was designated day 0. […] The mice were weighed and the tumor size measured every day.
The next series relates to HL-60 neo cells. Kind of series: DNA fragmentation (release of 3H-labeled DNA fragments) in vector control HL-60 neo cells. In kind it is cell-based, human. On the procedure:
The present study evaluated the ability of W-188 to sensitize Bcl-2-overexpressing cells to induce apoptosis. The human myelogenous leukemia, HL-60, and the human B cell leukemia, PW, normally express very low levels of Bcl-2. As a model system, W-188 and various analogs and derivatives were tested in normal HL-60 and PW cells and in Bcl-2-transfected HL-60 and PW cells that overexpress high levels of Bcl-2 (see Gilbert et al., J. Cell Physiol., 1996, 171:299).
As depicted in FIG. 4, HL-60 cells (Panel A) and PW cells (Panel B) cells were exposed to various apoptosis inducers: TNF at 5 ng/ml; etoposide at 20 μM; and UV at 0.08 J/cm^2. The release of 3H-labeled DNA fragments was measured after 5 h. Normal HL-60 and PW cells were equally sensitive to apoptosis inducers as compared with cells that were transfected with vector encoding neomycin resistance (HL-60 neo and PW neo) only. […] W-188 alone was nontoxic. The addition of W-188 to the neo cell lines caused a 1.5-2 fold increase in DNA fragmentation in response to the various apoptosis inducers.

Series [2] in a line: Cytotoxicity to normal venous endothelial cells (MTT dye reduction assay). It counts as cell-based, human. The following applies: human, normal venous endothelial cells, etoposide 100 μM, W-188 0 μg/mL; 6 h.
A further series has as its system AP24. Description: Etoposide-induced activation of AP24 (AAPVase) in HL-60 and PW leukemia lines. It counts as cell-based, human. The following applies: etoposide 50 μM, 3 h.
The next series deals with overexpression of Bcl-2. Kind of series: Comparison with compounds reported to counteract Bcl-2. It counts as cell-based. The following applies: data not shown. The text has this: W-188 was then compared to other compounds previously reported to counteract Bcl-2 (Marchetti, P., et al., J. Immunol., 1996, 157:4830; Hirsch, T., et al., Exp. Cell Res., 1998, 241:426).
The mark [3] stands for this setting: Exp 1, etoposide 5 μM + compound 10 μM.
Setting [4] is: Exp 4, etoposide 5 μM + compound 10 μM.
Where [5] appears, read: Exp 3, etoposide 5 μM + compound 20 μM.
[6] abbreviates: Exp 2, etoposide 10 μM + compound 10 μM.

As for `Cl.Cl.Cl.Cl.O.O=C(O)CN1CCCN(CC(=O)O)CCN(CC(=O)O)CCCN(CC(=O)O)CC1` [1,4,8,11-tetraazacyclotetra-decane-1,4,8,11-tetraacetic acid tetrahydrochioride hydrate], in the series on HL-60 Bcl-2 cells (setting [3]), the “% DNA Fragmentation” value is 0%.
Still for that read-out and setting: with `Cc1nc(-c2nc(C)c(C)[nH]2)[nH]c1C` [2,2′-bis(4,5-dimethyl-imidazole)] the figure was 2%.
In the case of `CC(C)(C)c1ccc2c(c1)-c1nc3nc(nc4[nH]c(nc5[nH]c(nc-2n1)c1cc(C(C)(C)C)ccc51)c1cc(C(C)(C)C)ccc41)-c1ccc(C(C)(C)C)cc1-3` [2,9,16,23-tetra-tert-butyl-29H, 31H-phthalocyanine], in the series on HL-60 Bcl-2 cells (setting [4]), the “% DNA Fragmentation” value turned out to be 0%.
With `N#Cc1nc[nH]c1C#N` [4,5-dicyanoimidazole], the “% DNA Fragmentation” value in the series with HL-60 Bcl-2 cells (setting [3]) stood at 10%.
On the same count and under the same terms, to `CC1(C)CC(C#N)CC(C)(C)N1[O]` [4-cyano tempo] belongs 2%.
For `Cc1ccc(-c2c3nc(c(-c4ccc(C)cc4)c4ccc([nH]4)c(-c4ccc(C)cc4)c4nc(c(-c5ccc(C)cc5)c5ccc2[nH]5)C=C4)C=C3)cc1` [5,10,15,20-tetra-p-tolyl-21H,23H-porphine], the “% DNA Fragmentation” value in the series with HL-60 Bcl-2 cells (setting [4]) turned out to be 15%.
Take `COc1cccc2c1C(=O)c1c(O)c3c(c(O)c1C2=O)C[C@@](O)(C(=O)CO)C[C@@H]3O[C@H]1C[C@H](N)[C@H](O)[C@H](C)O1` [Dox, doxorubicin, reference compound]: the Histopathology entry with mice (three i.p. injections, day 5) was “minor vacuolar changes in the liver”; with mice (day 15), “all tissues were normal”. In addition, the “Effect on tumor growth” value is “only a small effect on tumor growth” in the series with RIF-1 fibrosarcoma (Dox 5 mg/kg alone, three injections every other day, FIG. 14) and “very little effect on tumor growth” in the series on RIF-1 fibrosarcoma (Dox alone at 2.5 or 5 mg/kg, five i.p. injections every other day, FIG. 11). Besides, in the series on Bcl-2, the “Bcl-2 expression in tumor cell mitochondria” value is listed as “expressed high levels of Bcl-2”. Moreover, the Body weight entry in series [1] is listed as “toxic causing a significant weight loss on day 7-8”.
On to `COc1cc([C@@H]2c3cc4c(cc3[C@@H](O[C@@H]3O[C@@H]5CO[C@@H](C)O[C@H]5[C@H](O)[C@H]3O)[C@H]3COC(=O)[C@H]23)OCO4)cc(OC)c1O` [Etoposide], for which the “% DNA Fragmentation” value in the series on HL-60 Bcl-2 cells (Exp 1, etoposide 5 μM alone) turned out to be 0%; in the series on HL-60 Bcl-2 cells (Exp 2, etoposide 10 μM alone) it was 0%; with HL-60 Bcl-2 cells (Exp 3, etoposide 5 μM alone), 24%; in the series on HL-60 Bcl-2 cells (Exp 4, etoposide 5 μM alone), 3%; with HL-60 Bcl-2 cells (Exp 5, etoposide 10 μM alone) it was 0%; with HL-60 neo cells (Exp 1, etoposide 5 μM alone), 72%. The “% DNA Fragmentation” value in the series on HL-60 neo cells (Exp 2, etoposide 10 μM alone) turned out to be 57%; with HL-60 neo cells (Exp 3, etoposide 5 μM alone), 97%; in the series on HL-60 neo cells (Exp 4, etoposide 5 μM alone), 63%; in the series on HL-60 neo cells (Exp 5, etoposide 10 μM alone), 57%. This compound had a cytotoxicity at 6 h, 100 μM in series [2] of 22 ± 3.4%. Also, the “AP24 Activity (AAPVase, nmol/mg/hr)” value stood at 14 nmol/mg/h with AP24 (HL-60 Bcl-2), 100 nmol/mg/h in the series with AP24 (HL-60 neo), 12 nmol/mg/h with AP24 (PW Bcl-2) and 88 nmol/mg/h with AP24 (PW neo).
As for `C=CC1=C(C)c2cc3[n-]c(cc4[n-]c(cc5nc(cc1n2)C(C)=C5C=C)c(C)c4CCC(=O)O)c(CCC(=O)O)c3C.[Fe+2]` [Fe protoporphyrin IX], in the series with HL-60 Bcl-2 cells (setting [5]), the “% DNA Fragmentation” value stood at 17%.
For the compound `CCC(C)N(C)C(=O)c1cc2ccccc2c(-c2ccccc2Cl)n1` (stereo not drawn) [PK11195], the “Reversal of the effect of overexpression of Bcl-2” value in the series on overexpression of Bcl-2 (at 20 μM (the highest non-toxic concentration)) was “completely ineffective”.
With `C=CC1=C(C)c2cc3[n-]c(cc4[n-]c(cc5nc(cc1n2)C(C)=C5C=C)c(C)c4CCC(=O)O)c(CCC(=O)O)c3C.[Sn+4]` [Sn protoporphyrin IX], in the series with HL-60 Bcl-2 cells (setting [5]), the “% DNA Fragmentation” value was 5%.
For the compound `CCC1=C(C)C(=O)N/C1=C\c1[nH]c(C)c(CC)c1C` [W-145], the “% DNA Fragmentation” value in the series with HL-60 Bcl-2 cells (Exp 5, etoposide 10 μM + compound 10 μM) worked out at 28%.
`C=CC1=C(C)c2cc3[n-]c(cc4[n-]c(cc5nc(cc1n2)C(C)=C5C=C)c(C)c4CCC(=O)O)c(CCC(=O)O)c3C.[Zn+2]` [Zn protoporphyrin IX]: the “% DNA Fragmentation” value with HL-60 Bcl-2 cells (setting [5]) stood at 19%.
On to `C=CC1=C(C)/C(=C/c2[nH]c(Cc3[nH]c(/C=C4\NC(=O)C(C)=C4C=C)c(C)c3CCC(=O)O)c(CCC(=O)O)c2C)NC1=O` [bilirubin], for which the “% DNA Fragmentation” value in the series on HL-60 Bcl-2 cells (setting [6]) came out at 17%.
In the case of `C=CC1=C(C)/C(=C/C2=NC(=C\c3[nH]c(/C=C4\NC(=O)C(C)=C4C=C)c(C)c3CCC(=O)O)/C(CCC(=O)O)=C2C)NC1=O` [biliverdin], in the series on HL-60 Bcl-2 cells (setting [5]), the “% DNA Fragmentation” value is 20%.
On to `[Co+2].c1ccc2c(c1)-c1nc-2nc2[n-]c(nc3nc(nc4[n-]c(n1)c1ccccc41)-c1ccccc1-3)c1ccccc21` [cobalt (II) pthalocyanine], for which the “% DNA Fragmentation” value in the series with HL-60 Bcl-2 cells (setting [3]) is on record as 9%.
For `CC1=C(CCC(=O)O)c2cc3nc(cc4[nH]c(cc5[nH]c(cc1n2)c(C)c5CCC(=O)O)c(CCC(=O)O)c4C)C(CCC(=O)O)=C3C` [coproporphyrin], the “% DNA Fragmentation” value in the series with HL-60 Bcl-2 cells (setting [6]) was found to be 15%.
In the case of `Br.Br.CCC1=C(C)c2cc3[nH]c(cc4[nH]c(cc5nc(cc1n2)C(C)=C5CC)c(C)c4CC)c(C)c3CC` [etioporphyrin I dihydrobromide], the “% DNA Fragmentation” value in the series on HL-60 Bcl-2 cells (setting [4]) amounted to 25%.
As for `C=CC1=C(C)c2cc3[n-]c(cc4[n-]c(cc5nc(cc1n2)C(C)=C5C=C)c(C)c4CCC(=O)O)c(CCC(=O)O)c3C.O.[Fe+2]` [hematin], in the series with HL-60 Bcl-2 cells (setting [3]), the “% DNA Fragmentation” value came out at 2%.
Turning to `C1=Cc2cc3ccc(cc4ccc(cc5nc(cc1n2)C=C5)[nH]4)[nH]3` [porphyin], in the series with HL-60 Bcl-2 cells (setting [6]), the “% DNA Fragmentation” value worked out at 10%.
Same read-out and setting: to `C=CC1=C(C)c2cc3[nH]c(cc4nc(cc5[nH]c(cc1n2)c(C)c5CCC(=O)O)C(CCC(=O)O)=C4C)c(C)c3C=C` [protoporphyrin IX] belongs 3%.
Consider `CC(=O)O[C@H]1C(=O)[C@@]2(C)[C@H]([C@H](OC(=O)c3ccccc3)[C@]3(O)C[C@H](OC(=O)[C@H](O)[C@@H](NC(=O)c4ccccc4)c4ccccc4)C(C)=C1C3(C)C)[C@]1(OC(C)=O)CO[C@@H]1C[C@@H]2O` [taxol], for which, in the series on overexpression of Bcl-2, the “Reversal of the effect of overexpression of Bcl-2, compared with W-188” value was “inferior to W-188”.
Regarding deuterporphyrin IX dimethyl ester, in the series on HL-60 Bcl-2 cells (setting [3]), the “% DNA Fragmentation” value was 8%.

For the origin of these results see patent US20030207933A1, “Compositions and methods for increasing the sensitivity of apoptosis-resistant tumor cells to inducers of apoptosis” (priority 2002, published 2003).
